# Laboratory results taken from patent US20060180677A1, “Agricultural compositions which enhance performance of pesticides applied through drift reducing nozzles” (priority 2005, published 2006).
# Experiments:
# Velvetleaf = Velvetleaf control after glyphosate spray, by nozzle type and adjuvant; assay type: in vivo; settings: 28 days after treatment with glyphosate (0.375 lb ae/ac)
# From the text: (§1) The numbers in this table are percent control or percent kill of the weed.
# Hemp sesbania = Hemp sesbania control after glyphosate spray, by nozzle type and adjuvant; assay type: in vivo; settings: 28 days after treatment with glyphosate (0.375 lb ae/ac)
# From the text: as §1
smiles,measurement,setting,value
O=C(O)CNCP(=O)(O)O [glyphosate],"Velvetleaf control, InJet 110015 Nozzle","Velvetleaf; Table 1, InJet 110015 nozzle",85%
same,"Velvetleaf control, XR110015 Nozzle",Velvetleaf; Table 1,83%
same,"Velvetleaf control, DR 110015 Nozzle","Velvetleaf; Table 5, DR 110015 nozzle",90%
same,"Velvetleaf control, XR110015 Nozzle",Velvetleaf; Table 5,87%
same,"Hemp sesbania control, InJet 110015 Nozzle","Hemp sesbania; Table 2, InJet 110015 nozzle",20%
same,"Hemp sesbania control, XR110015 Nozzle",Hemp sesbania; Table 2,41%
same,"Hemp sesbania control, DR 110015 Nozzle","Hemp sesbania; Table 6, DR 110015 nozzle",50%
same,"Hemp sesbania control, XR110015 Nozzle",Hemp sesbania; Table 6,67%
